# US20060094790A1, “Use of sphingosine kinase activator as skin disease treating agent and method for treating skin diseases using the same” (priority 2004, published 2006)
# Tests used:
# RBL-2H3 cell line = test: Intracellular calcium movement (fura-2 fluorescence); format: cell-based; settings: RBL-2H3 cells, fura-2, FIGS. 1a to 1d
# Description: First, the following experiment for calcium movement was performed in order to determine whether the above sphingosine kinase activator compounds activate sphingosine-1-phosphate, so as to cause intracellular calcium movement, which is a typical activity specific to sphingosine-1-phosphate.
# The sphingosine kinase activator compounds were determined for capability of inducing intracellular calcium movement by using a RBL-2H3 cell line, which is one of the typical cell lines showing intracellular calcium movement. The cells are cultured by using an RPMI 1640 culture medium and the cells were washed simultaneously with removal of the medium. Then, 10 μM of fura-2/Am and 250 μl M of sulfinpyrazone were added thereto, followed by incubation for 30 minutes. Cell pellets were obtained by centrifugal separation and the cell pellets were dispersed in Ca^2+-free Locke's solution. The dispersion was divided into a unit of 1×10^6 cells for use in treating samples. Next, the cells were introduced into a cuvet of a fluorescence microscope, each sphingosine kinase activator compound was added thereto, and intracellular calcium movement was observed by the fluorescence microscope (RF-5310PC, Spectrofluoro photometer, SHIMADZU). When intracellular calcium ions are detected, they cause fluorescence by bonding with fura-2. Therefore, a degree of calcium movement caused by a sample was evaluated by calculating a difference between the measurement of fura-2 ([…]) bonded with calcium and that of non-bonded fura-2 ([…]).
# sphingosine kinase = target: T1, sphingosine kinase (Mus musculus, UniProt Q8CI15); test: Activation of sphingosine kinase (C17-sphingosine-1-phosphate production, HPLC); format: cell-based; settings: F9-12 cells, 24 hours, 50 μM compound, PMA 300 nM
# T1 construct: host or cells: F9-12 cells
# Description: The following test for activation of sphingosine kinase was performed to determine whether the effects of the above compounds upon intracellular calcium signal transfer as described in Example 1 were caused by activation of sphingosine kinase.
# F9-12 cells were treated with 300 nM of PMA ([…]) as positive control, and 50 μM of each of K6PC4 and K6PC-5 for 24 hours and collected. Then, activity of sphingosine kinase was measured as production of C17-sphingosine-1-phosphate based on 50 μg of protein. Sphingosine-1-phospate was extracted from the collected cells by the steps of: (1) treating with trypsin-EDTA, (2) centrifugal separation at 1,500 rpm for 10 minutes, and (3) washing with PBS, followed by freeze-drying. Then, PBS was added to the freeze-dried product and the resultant product was treated with ultrasonic waves to destroy cells. Sphingosine-1-phosphate was determined by HPLC, and OPA (o-phthalaldehyde) reagent and boric acid buffer were added to the extracted sample and the mixture was reacted at room temperature for 20 minutes. For the HPLC quantitive analysis, fluorescence intensity was measured at each wavelength of 340 nm and 455 nm with a solution in 90% acetonitrile, and a ratio to the internal standard was calculated.
# fibroblasts = test: Collagen synthesis in fibroblasts (PICP, collagen measuring kit); format: cell-based; settings: 72 hours; for Amount of PICP produced in fibroblasts (average ± SEM): non-treated control 47.1 ± 9.7
# Description: The following experiment was performed by using fibroblasts in order to evaluate the effect of sphingosine kinase activator upon collagen synthesis.
# Each of K6PC4, K6PC-5, K6PC-7 and K6PC-9 was dissolved in DMSO at a concentration of 0.3 and 1.0 μg/ml. The solutions were used as samples and analyzed for collagen synthesis after incubation for 72 hours. 72 hours after the treatment of the sample, culture solution was discarded, cells were washed with serum-free DMEM three times, and cells were cultured again by using flesh serum-free DMEM. After incubation, supernatant in each well was combined and analyzed for the amount of PICP (procollagen type I C-peptide) by using a collagen measuring kit. The standard solution contained in the collagen measuring kit was diluted with a sample and absorption at 450 nm was measured to construct a standard concentration curve (see the following Table 2).
# To an antibody-coated microtiter plate comprising a primary collagen antibody applied unifomrily thereto, 100 μl of an antibody-POD conjugate solution and the cell supernatant collected as described above were added, followed by incubation at 37° C. for 3 hours, to induce an antigen-antibody reaction. Then, the reaction mixture was subjected to washing and color developing. After the reaction, the reaction mixture developed a yellow color, wherein the yellowness depended on reaction degrees. Also, 96 well plates developing a yellow color were determined at 450 nm by using a microtiter plate reader.
# SD rat = test: Inhibition of wrinkles and skin aging, UV-induced wrinkle model; format: in vivo
# Description: Generally, continuous exposure to UV causes wrinkles and side effects such as sun burn and skin irritation, resulting in stimulation of skin aging.
# To perform the evaluation, an SD rat with three wrinkles is irradiated with UVB under an intensity of 130 mJ/cm^2 at its rear leg […] for 6 weeks. Then, 10 μl (1% in 80% EtOH) of K6PC-5 was applied to the skin of rear leg right after each time of UV irradiation, UV irradiation being performed 5 times per week during 6 weeks from the start day of the UV irradiation. Nine weeks after the treatment, the rat was anesthetized with albutin and the wrinkles were photographed. Additionally, wrinkle-forming portions were replicated by using an exafine hydrophilic vinyl polysiloxane impression material. The replicated images were analyzed quantitively for shadow images by using an image analyzer.
# hairless mouse = format: in vivo; settings: 1.0% in PEG:EtOH=7:3 combined with 0.05% chlobetason-17-propionate, back of hairless mouse, H & E staining
# Excerpt: To evaluate effect of the sphingosine kinase activator upon inhibition of steroid side effects, a steroid was applied to a hairless mouse. Typically, side effects caused by long-term or excessive dose of steroids include skin atrophy expressed by thinning of skin and weakening of skin functions, and a rebound phenomenon including reoccurrence of conditions caused by stopping use of steroids. It is reported that the main cause for such side effects is inhibition of fibroblast activity and a decrease in collagen production (S. Hammer et al., J. Cell. Biochem, 91, 840-851, 2004), Therefore, it is expected that the compound according to the present invention enhances collagen synthesis and differentiation of keratinocytes, and thus inhibits such side effects caused by steroids. To perform a test, a steroid, i.e. 0.05% chlobetason-17-propionate, and […]-5 according to the present invention (1.0% in PEG:EtOH=7:3) were applied to a hairless mouse and changes in the skin were observed. The treating agents were applied to the back of a hairless mouse 9 times per day and the tissue was collected. Then, the epidermis and dermis were observed by carrying out the H & E staining method (hematoxylin and eosin staining) known to one skilled in the art.
# rats = settings: rat, in vivo
# Description: (§1) Those tests were performed based on “Toxicity Test Standards for Pharmaceutical Products” disclosed by the Korea Food & Drug Administration.
# guinea pigs = settings: guinea pig, in vivo
# Description: as §1
# Description for human subjects: In this example, effects of improving wrinkles were evaluated in 32 subjects (average age: 46.7). During the total period of 8 weeks, a cream containing 1% of K6PC-5 and cream containing no K6PC-5 (control) were applied around both eye rims and then instrumental evaluation was performed. A silicone replica for the eye tail part of a subject was formed, and the replica was irradiated with light at an angle. Then, a shading degree formed by wrinkles in the replica was photographed by a CCD camera, and the image was determined for a wrinkling degree by using a computer image analysis system. More particularly, a program of Skin Visiometer SV 600 available from C+K Co. (Germany) was used for determination, wherein wrinkle parameters are expressed as R1 through R5 values. R1, R2 and R3 represent deep wrinkles and R4 and R5 represent shallow wrinkles.
# T1 sequence (Q8CI15 1-381 isoform Q8CI15-3): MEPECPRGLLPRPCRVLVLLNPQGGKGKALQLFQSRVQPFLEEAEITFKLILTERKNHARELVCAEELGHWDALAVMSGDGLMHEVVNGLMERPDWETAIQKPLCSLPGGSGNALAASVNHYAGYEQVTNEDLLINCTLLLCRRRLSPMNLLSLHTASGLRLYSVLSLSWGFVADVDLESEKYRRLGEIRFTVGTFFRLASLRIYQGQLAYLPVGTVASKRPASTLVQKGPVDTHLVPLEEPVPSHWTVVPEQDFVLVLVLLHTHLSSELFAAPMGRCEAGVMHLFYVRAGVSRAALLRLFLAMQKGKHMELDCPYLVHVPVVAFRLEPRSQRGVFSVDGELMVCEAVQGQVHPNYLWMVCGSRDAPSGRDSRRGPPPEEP
structure (smiles),measurement,setting,value
"CCCCCCCC(=O)C(CCCCCC)C(=O)NC(CO)CO (stereo not shown) [K6PC-5, N-(1,3-dihydroxyisopropyl)-2-hexyl-3-oxo-decanamide]",intracellular calcium movement,RBL-2H3 cell line,caused intracellular calcium movement
same,C17-SIP Production,sphingosine kinase; non-treated control 51.72,75.59 pmol/min/mg
same,increase in production of sphingosine-1-phosphate,sphingosine kinase; versus non-treated control,about 46%
same,Amount of PICP produced in fibroblasts (average ± SEM),fibroblasts; 0.3 μg/ml,111.2 ± 3.9
same,Amount of PICP produced in fibroblasts (average ± SEM),fibroblasts; 1.0 μg/ml,96.0 ± 5.6
same,collagen synthesis increase as compared to the non-treated control,"fibroblasts; fibroblasts, 0.3 or 1.0 μg/ml (concentration not given)",about 2.4 times
same,inhibition of wrinkles compared to vehicle control,"SD rat; 10 μl of 1% in 80% EtOH after each UVB irradiation (130 mJ/cm^2), 6 weeks, replica image analysis",about 63%
same,erythema caused by UV compared to vehicle control,"SD rat; 10 μl of 1% in 80% EtOH after each UVB irradiation, skin photograph FIG. 4b",decrease in erythema
same,inhibition of steroid side effects (skin atrophy),hairless mouse,significant inhibition of side effects caused by steroids
same,Single dose oral toxicity test result,rats,No irritation
same,Skin sensitization test result,guinea pigs,No irritation
same,improvement in the condition of wrinkles around the eye,"human subjects; cream containing 1% of K6PC-5, 8 weeks, versus control cream, P<0.05 t-test",statistically significant improvement in the condition of wrinkles
same,skin irritation or hypersensitive reaction (inspection of dermatologists),"human subjects; human, in vivo",no skin irritation or hypersensitive reaction
